The values that follow come from patent US10420781B2, “Thyroid hormone receptor agonist and use thereof” (Metabasis Therapeutics, Inc., priority 2016, dated 2019).

Entries after “also recorded” stand apart in the source; their conditions may differ.

For series [1], the system named is cholesterol-fed Sprague Dawley rat. The experiment in a line: Single oral dose, plasma cholesterol lowering in cholesterol-fed rat. Format: in vivo. Conditions: 24 hours. How it is done: Compound I was tested to determine the cholesterol lowering efficacy and potency of Compound I following oral administration of single dose to a standard rodent model of hypercholesterolemia, the cholesterol-fed Sprague Dawley rat.
Male Sprague Dawley rats were obtained from Harlan (Livermore, Calif.) at a body weight of 250 g, caged 3 rats/cage, and housed under a 12 h:12 h, light:dark cycle (lights on at 7 AM). Pelleted 5001 chow containing 1.5% cholesterol and 0.5% cholic acid (Harlan Teklad, Indianapolis, Ind.) was provided for 2 weeks prior to the initiation of treatment. Food and water were provided ad libitum.
Compound I was dissolved in 100% PEG-400. […]
Male Sprague Dawley rats (˜250 g) were fed a diet containing 1.5% cholesterol and 0.5% cholic acid for 2 weeks prior to the initiation of treatment. Compound I was administered as an oral solution in PEG-400 and phosphate buffered saline, respectively, at doses ranging from 0.3 to 100 mg/kg Compound I. Thyroid hormone T3 (0.1 mg/kg) was evaluated as a positive control. […]
Plasma was prepared from the blood samples by centrifugation in an Eppendorf Microfuge (14,000 rpm, 2 min, room temperature). Total plasma cholesterol was measured using the Infinity cholesterol reagent (Thermo Electron Corporation, Waltham, Mass.) and a standard curve prepared with a 300 mg/dL cholesterol standard. […]

Series [2] has as its system rat. As to the kind of experiment: Pilot rat 28-day safety study. The conditions noted are these: 28 days; 1 and 5 mg/kg per day.
Method: Two doses were tested, 1 mg/kg per day and 5 mg/kg per day. […] The mice were sacrificed on day 29 and then analyzed for clinical signs, BW, FC Clinical pathology (including TSH, T3, T4), gross pathology, organ weights, histopathology, toxicokinetics.
For series [3], the system named is beagle dogs. As to the kind of experiment: Once-daily oral administration for 14 days, thyroid function tests (tT4, fT4, tT3, fT3, TSH) in beagle dogs. It counts as in vivo, dog. The method, then: (§1) The effects of once-daily oral administration of Compound I on plasma cholesterol levels and thyroid function indicators in beagle dogs were evaluated for 14 days.
(§2) Male and female beagle dogs were purchased from Marshall Farms (North Rose, N.Y.) at approximately 9-15 kg in body weight. Animals were housed individually under a 12 hour lighting cycle (7 am-7 pm light) and controlled temperature (˜22° C.). The dogs were fed twice-daily with Teklad 8563 chow (Harlan Teklad, Madison, Wis.) and allowed water ad libitum.
Compound I was dissolved in 100% PEG-400. The formulation was prepared just prior to initiation of treatment and stored at 4° C. A fresh formulation was prepared for each 7 day treatment period.
Twelve beagle dogs (9-15 kg) were randomized into 6 dosing groups (1 male and 1 female/group) and gavaged once-daily with a PEG-400 solution of Compound I at doses of 0.1, 0.3, 1, 3, or 10 mg/kg or with vehicle for 14 days. At the end of the treatment cycle (Cycle 1), the dogs were washed out for 6 weeks and then entered into a second 14-day treatment cycle. Cycle 2 employed the same dosing paradigm as Cycle 1, but animals were randomized to Cycle 2 in such a way that the combined dosing groups from the two cycles each consisted of 4 different animals (2 males, 2 females). Blood samples were collected at baseline and appropriate time intervals thereafter and analyzed for total plasma cholesterol levels, serum levels of total T4 (tT4), free T4 (fT4), total T3 (tT3), free T3 (fT3), thyroid stimulating hormone (TSH), and plasma drug levels.
Serum samples were shipped on dry ice to the Diagnostic Center for Population and Animal Health (Lansing, Mich.) and assayed for total T4 (tT4), free T4 (fT4), total T3 (tT3), free T3 (fT3), and thyroid stimulating hormone (TSH). Average values±the standard error of the mean (SEM) were calculated for all treatment groups.

For series [4], the system named is fT3 and fT4 levels in rat serum. The experiment in a line: Ex vivo effect on fT3 and fT4 levels in rat serum (RIA). Conditions: 1 h at 37° C., 1-100 μM tested. How it is done: (§3) Compound I was tested to measure its ex vivo effects at concentrations ranging from 0 to 100 μM on the free 3,5,3′-triiodothyronine (fT3) and the free 3,5,3′,5′ tetraiodothyronine (fT4) levels in human, monkey, dog, and rat sera.
(§4) Stock solution of Compound I was prepared in 100% DMSO. The test articles were combined with either human, monkey, dog or rat serum in a microcentrifuge tube at concentrations of 1, 3, 10, 30, and 100 μM, and incubated at 37° C. with agitation (800 rpm) using a Thermomixer R (Eppendorf, Inc.; Westbury, N.Y.) for 1 h. The DMSO concentration in the serum incubations was kept constant at 1%. Following the serum incubations, fT3 and T4 quantification was accomplished using the GammaCoat™ FT3 and the GammaCoat™ FT4 RIA kits, respectively. The kits were used according to the manufacturer's recommendations. The T3 assay specifications indicate 0.2% cross-reactivity with T4, while the T4 assay specifications indicate 0.5% cross-reactivity with T3. In these […] assays, a shaking water bath and a Wallac Wizard 1470 automatic gamma counter (Perkin Elmer, Inc.; Waltham, Mass.) were used. At each concentration tested, a background signal was subtracted from the data. This background signal was determined in samples of the test articles in PBS in the absence of serum. All assays were performed in duplicate.

Series [5] has as its system beagle dogs. The experiment in a line: Once-daily oral administration for 14 days, total plasma cholesterol in beagle dogs. It counts as in vivo, dog. The conditions noted are these: 14 days once-daily oral, 0.1-10 mg/kg/day. The method, then: as §1, §2
Compound I was dissolved in 100% PEG-400. The formulation was prepared just prior to initiation of treatment and stored at 4° C. […]
Twelve beagle dogs (9-15 kg) were randomized into 6 dosing groups (1 male and 1 female/group) and gavaged once-daily with a PEG-400 solution of Compound I at doses of 0.1, 0.3, 1, 3, or 10 mg/kg or with vehicle for 14 days. […] Blood samples were collected at baseline and appropriate time intervals thereafter and analyzed for total plasma cholesterol levels, serum levels of total T4 (tT4), free T4 (fT4), total T3 (tT3), free T3 (fT3), thyroid stimulating hormone (TSH), and plasma drug levels.
Total plasma cholesterol was measured using an Infinity cholesterol reagent (Thermo Electron Corporation, Waltham, Mass.) and with use of a standard curve prepared from a 300 mg/dL cholesterol standard. […]

Series [6] deals with beagle dogs. The experiment in a line: Comparison of Compound I and MB07811: cholesterol, tT4 and TSH in beagle dogs. It counts as in vivo, dog. How it is done:
Compound I was compared with Compound MB07811 with respect to their efficacy in lowering cholesterol and their effects on the total T4 (tT4) and thyroid stimulating hormone (TSH).
Compound I and Compound MB07811 were tested to determine the effects of oral administration of each compound once-daily for 14 days followed by alternate day dosing for 14 days on plasma cholesterol levels and indicators of thyroid function in beagle dogs.
Male and female Beagle dogs were purchased from Marshall Farms (North Rose, N.Y.) at approximately 9-15 kg. Animals were housed individually under a 12-hour lighting cycle (7 am-7 pm light) and controlled temperature (˜22° C.). The dogs were fed twice daily with Teklad 8563 chow (Harlan Teklad, Madison, Wis.) and allowed water ad libitum.
MB07811 was administered as a suspension in 0.5% CMC/1% Lutrol in deionized water. To prepare the vehicle, the required amount of CMC was weighed and dissolved in deionized water using a Waring blender. The required amount of Lutrol F68 was weighed and slowly added to the Waring blender while mixing. […]
Twelve beagle dogs (9-15 kg) were randomized into 6 dosing groups (1 male and 1 female/group) and gavaged once-daily with a 0.5% CMC/1% Lutrol F68 suspension of MB07811 at doses of […] or with vehicle for 14 days. […] Blood samples were collected at baseline and appropriate time intervals thereafter and analyzed for total plasma cholesterol levels, serum levels of total T4 (tT4), free T4 (fT4), total T3 (tT3), free T3 (fT3), and thyroid stimulating hormone (TSH). […]
Twelve beagle dogs (9-15 kg) were randomized into 6 dosing groups (1 male and 1 female/group) and gavaged once-daily with a PEG-400 solution of Compound I at doses of 0.1, 0.3, 1, 3, or 10 mg/kg or with vehicle for 14 days. […] Blood samples were collected at baseline and appropriate time intervals thereafter and analyzed for total plasma cholesterol levels, serum levels of total T4 (tT4), free T4 (fT4), total T3 (tT3), free T3 (fT3), and thyroid stimulating hormone (TSH), and for plasma drug levels

Series [7] relates to fT3 and fT4 levels in dog serum. As to the kind of experiment: Ex vivo effect on fT3 and fT4 levels in dog serum (RIA). Conditions: 1 h at 37° C., 1-100 μM tested. How it is done: as §3, §4
Series [8] concerns fT3 and fT4 levels in monkey serum. As to the kind of experiment: Ex vivo effect on fT3 and fT4 levels in monkey serum (RIA). The conditions noted are these: 1 h at 37° C., 1-100 μM tested. The method, then:
as §3, §4

Series [9] has as its system fT3 and fT4 levels in human serum. The experiment in a line: Ex vivo effect on fT3 and fT4 levels in human serum (RIA). The method, then: as §3, §4
Where [10] appears, read: all five doses 0.1, 0.3, 1, 3, 10 mg/kg, baseline, 8-day, 15-day.

`Cc1cc(OCP(=O)(OCOC(=O)C(C)(C)C)OCOC(=O)C(C)(C)C)cc(C)c1Cc1ccc(O)c(Cc2ccccc2)c1` [Compound I]: the median effective dose (ED50) in [1] (Rattus norvegicus, single oral dose, read-out: ED50 (dose that elicits a half-maximal reduction in total plasma cholesterol levels from baseline)) is about 2 mg/kg. Besides, in [2], the “TFT effects greater than Compound MB07811” value is given as “no evidence”; the “cardiac or liver necrosis” value was “no evidence”; the “deaths or adverse effects on body weight, food consumption, hematology, serum chemistry or urinalysis, or macroscopic or microscopic pathology” value was “no deaths or adverse effects”. Further, the “reduction of serum fT3” value in series [3] (14 days, highest dose group 10 mg/kg/day) is on record as “about 45%”. Also, the “reduction of serum tT4 from baseline” value in series [3] (Day 15, 1 mg/kg/day) is given as “about 29%”. Further, in [3] (Day 15, 10 mg/kg/day), the “tT4 levels reduced relative to baseline (in the fT3 paragraph, FIG. 9)” value is given as about 45%. Also, the “reduction of serum tT4 from baseline” value in series [3] (Day 15, 0.1, 0.3 and 3 mg/kg/day) is 6.7-9.5%. Moreover, the “change of serum TSH levels from baseline” value in series [3] (Day 15, 0.1 to 10 mg/kg/day) is on record as “no meaningful changes; also recorded: did not show any effect; also recorded: essentially unaffected”. In addition, the “reduction of serum fT4 from baseline” value in [3] (Day 15, all Compound I treated groups, not dose dependent, vehicle about 19%) was 13-32%. The “reduction of serum fT3 from baseline” value in series [3] (Day 15, doses up to and including 3 mg/kg/day) is on record as 8-20%. Moreover, in series [3] (Day 15, treatment groups, not dose dependent, vehicle about 13%), the “reduction of serum tT3 from baseline” value was 8-15%. In addition, in series [4], the “highest concentration at which no increase in fT3 level was observed” value is 100 µM and the “highest concentration at which no increase in fT4 level was observed” value was 100 µM. The “reduction of total plasma cholesterol levels, dose dependent” value in [5] is recorded as 15-38%. In series [6] (setting [10]), the “effect on T4 (tT4) levels in comparison” value is on record as “reduced effect” and the “effect on serum TSH level in comparison with MB07811” value is recorded as “no effect”. The “effect on the thyroid hormone axis (T4 and TSH) versus MB07811” value in [6] (dog, in vivo) was “much reduced effect”. Moreover, in series [7], the “highest concentration at which no increase in fT3 level was observed” value was found to be 100 µM and the “highest concentration at which no increase in fT4 level was observed” value amounted to 100 µM. Also, in [8], the “highest concentration at which no increase in fT3 level was observed” value was determined as 30 µM and the “highest concentration at which no increase in fT4 level was observed” value came out at 100 µM. Besides, in series [9], the “concentration at which no effect on fT3 was shown” value is “less than 30” and the “concentration at which no effect on fT4 was shown” value is on record as “less than 100 μM”. Moreover, in series [9] (1 h at 37° C., 1-100 μM tested), the “highest concentration at which no increase in fT3 level was observed” value stood at 30 µM and the “highest concentration at which no increase in fT4 level was observed” value was found to be 100 µM.
As to `N[C@@H](Cc1cc(I)c(Oc2ccc(O)c(I)c2)c(I)c1)C(=O)O` [Compound T3, 3,5,3′-triiodo-L-thyronine, reference compound], the “magnitude of cholesterol lowering versus Compound I at its two highest doses” value in series [1] (T3 0.1 mg/kg, Compound I 30 and 100 mg/kg) is “comparable”.
